Assay results from patent publication US6737383B1, “Herbicidal oxadiazolidines” (priority 1999, dated 2004).

Columns and labels:
winter wheat [1] = assay: Test E winter wheat; format: in vivo, Triticum aestivum; conditions: Postemergence
Procedure, shortened: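 For postemergence, application to 1- to 4-leaf plants growing in a 60:40 sandy loam–potting mix substrate. Formulation: non-phytotoxic solvent mixture plus surfactant. Untreated controls served as the reference for the visual rating after ~21–28 days.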

wild oat = assay: Test E wild oat; format: in vivo, Avena fatua; conditions: Preemergence
morningglory = assay: Test B pre/postemergence morningglory; format: in vivo, Ipomoea hederacea
Procedure, shortened: (§1)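 Herbicidal effect was estimated by eye on a ten-point control scale after plants spent twelve to sixteen days in a greenhouse following soil or foliar treatment. Foliar sprays targeted plants at one to four leaves; all doses were formulated in a non-phytotoxic solvent with surfactant.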

winter wheat [2] = assay: Test E winter wheat; format: in vivo, Triticum aestivum; conditions: Preemergence
pigweed = assay: Test B pre/postemergence pigweed; format: in vivo, Amaranthus retroflexus
Procedure, shortened: as §1

blackgrass = assay: Test E blackgrass; format: in vivo, Alopecurus myosuroides; conditions: Preemergence
winter barley = assay: Test E winter barley; format: in vivo, Hordeum vulgare; conditions: Preemergence
green foxtail = assay: Test E green foxtail; format: in vivo, Setaria viridis; conditions: Preemergence
giant foxtail = assay: Test B pre/postemergence giant foxtail; format: in vivo, Setaria faberii
Procedure, shortened: as §1

Italian ryegrass = assay: Test E Italian ryegrass; format: in vivo, Lolium multiflorum; conditions: Preemergence
[3] = Rate 250 g/ha, 0 to 100 scale (0 no effect, 100 complete control)
[4] = Rate 62 g/ha, 0 to 100 scale, 0 no effect, 100 complete control
[5] = Rate 125 g/ha, 0 to 100 scale (0 no effect, 100 complete control)
[6] = Postemergence, Rate 125 g/ha, scale of 0 to 10 where 0 is no effect and 10 is complete control
[7] = Postemergence, Rate 250 g/ha, scale 0 to 10, 0 no effect, 10 complete control
[8] = Preemergence, Rate 62 g/ha, scale 0 to 10 (0 no effect, 10 complete control)
[9] = Preemergence, Rate 125 g/ha, scale 0 to 10 (0 no effect, 10 complete control)
[10] = Preemergence, Rate 250 g/ha, scale of 0 to 10 where 0 is no effect and 10 is complete control
[11] = Preemergence, Rate 500 g/ha, scale 0 to 10 (0 no effect, 10 complete control)
[12] = Rate 62 g/ha, Postemergence, scale of 0 to 10 where 0 is no effect and 10 is complete control
[13] = Rate 500 g/ha, Postemergence, scale 0 to 10, 0 no effect, 10 complete control
[14] = Rate 31 g/ha, 0 to 100 scale, 0 no effect, 100 complete control
[15] = Preemergence, Rate 31 g/ha, visual rating, scale 0 to 10 (0 no effect, 10 complete control)
[16] = Preemergence, Rate 62 g/ha, scale of 0 to 10 where 0 is no effect and 10 is complete control
[17] = Rate 16 g/ha, Postemergence, scale 0 to 10, 0 no effect, 10 complete control
[18] = Rate 16 g/ha, Preemergence, scale 0 to 10, 0 no effect, 10 complete control
[19] = Rate 31 g/ha, Postemergence, scale 0 to 10
[20] = Rate 62 g/ha, Postemergence, scale 0 to 10 (0 no effect, 10 complete control)
[21] = Rate 125 g/ha, Postemergence, scale of 0 to 10 where 0 is no effect and 10 is complete control
[22] = Rate 125 g/ha, Preemergence, scale of 0 to 10 where 0 is no effect and 10 is complete control
[23] = Rate 1000 g/ha, 0 to 100 scale where 0 is no effect and 100 is complete control
[24] = Postemergence, Rate 62 g/ha, scale 0 to 10, 0 is no effect, 10 is complete control
[25] = Preemergence, Rate 500 g/ha, scale 0 (no effect) to 10 (complete control)

CC(C)N(C(=O)n1oc(=O)n(C2CCCCC2)c1=O)c1ccc(Cl)cc1 [Compound 111]
Plant response rating, Wheat (winter) (winter wheat [1]; Rate 62 g/ha, 0 to 100 scale): 0 | Plant response rating, Wheat (winter) (winter wheat [1]; Rate 125 g/ha, 0 to 100 scale): 0 | Plant response rating, Wheat (winter) (winter wheat [1]; [3]): 0 | Plant response rating, Wild oat (wild oat; [4]): 0 | Plant response rating, Wild oat (wild oat; [5]): 0 | Morningglory plant response rating (morningglory; [6]): 5 | Morningglory plant response rating (morningglory; [7]): 5 | Morningglory plant response rating (morningglory; [8]): 0 | Plant response rating, Morningglory (morningglory; [9]): 0 | Plant response rating, Morningglory (morningglory; [10]): 0 | Morningglory plant response rating (morningglory; [11]): 0 | Morningglory plant response rating (morningglory; [12]): 4 | Morningglory plant response rating (morningglory; [13]): 8 | Plant response rating, Wheat (winter) (winter wheat [2]; [4]): 0 | Plant response rating, Wheat (winter) (winter wheat [2]; [5]): 0 | Plant response rating, Wheat (winter) (winter wheat [2]; Rate 250 g/ha, 0 to 100 scale): 0 | Redroot pigweed plant response rating (pigweed; [6]): 3 | Redroot pigweed plant response rating (pigweed; [8]): 3 | Plant response rating, Redroot pigweed (pigweed; [9]): 6 | Plant response rating, Redroot pigweed (pigweed; [10]): 8 | Redroot pigweed plant response rating (pigweed; [11]): 8 | Redroot pigweed plant response rating (pigweed; [12]): 3 | Plant response rating, Redroot pigweed (pigweed; Rate 250 g/ha, Postemergence, scale 0 to 10, 0 is no effect, 10 is complete control): 4 | Redroot pigweed plant response rating (pigweed; [13]): 6 | Plant response rating, Blackgrass (blackgrass; [4]): 0 | Plant response rating, Blackgrass (blackgrass; [5]): 0 | Plant response rating, Blackgrass (blackgrass; Rate 250 g/ha, 0 to 100 scale): 0 | Plant response rating, Barley (winter) (winter barley; [4]): 0 | Plant response rating, Barley (winter) (winter barley; [5]): 0 | Plant response rating, Barley (winter) (winter barley; Rate 250 g/ha, 0 to 100 scale): 0 | Plant response rating, Green foxtail (green foxtail; [4]): 0 | Plant response rating, Green foxtail (green foxtail; [5]): 0 | Plant response rating, Green foxtail (green foxtail; Rate 250 g/ha, 0 to 100 scale): 10 | Giant foxtail plant response rating (giant foxtail; [6]): 2 | Giant foxtail plant response rating (giant foxtail; [7]): 5 | Giant foxtail plant response rating (giant foxtail; [8]): 8 | Plant response rating, Giant foxtail (giant foxtail; [9]): 9 | Plant response rating, Giant foxtail (giant foxtail; [10]): 10 | Giant foxtail plant response rating (giant foxtail; [11]): 10 | Giant foxtail plant response rating (giant foxtail; [12]): 2 | Giant foxtail plant response rating (giant foxtail; [13]): 9 | Plant response rating, I. Ryegrass (Italian ryegrass; [4]): 0 | Plant response rating, I. Ryegrass (Italian ryegrass; [5]): 0 | Plant response rating, I. Ryegrass (Italian ryegrass; Rate 250 g/ha, 0 to 100 scale): 0

CC(C)N(C(=O)n1oc(=O)n(CCCF)c1=O)c1ccc(F)cc1 [Compound 287]
Plant response rating, Wheat (winter) (winter wheat [1]; [14]): 30 | Plant response rating, Wheat (winter) (winter wheat [1]; Rate 62 g/ha, 0 to 100 scale): 30 | Plant response rating, Wheat (winter) (winter wheat [1]; Rate 125 g/ha, 0 to 100 scale, 0 is no effect, 100 is complete control): 40 | Wheat (winter) plant response rating (winter wheat [1]; Rate 250 g/ha, 0 to 100 scale where 0 is no effect and 100 is complete control): 50 | Plant response rating, Wild oat (wild oat; [14]): 0 | Plant response rating, Wild oat (wild oat; [4]): 30 | Plant response rating, Wild oat (wild oat; [5]): 70 | Wild oat plant response rating (0 to 100 scale) (wild oat; Rate 250 g/ha): 60 | Morningglory plant response rating (morningglory; [15]): 0 | Morningglory plant response rating (morningglory; [16]): 0 | Morningglory plant response rating (morningglory; [17]): 2 | Morningglory plant response rating (morningglory; [18]): 0 | Morningglory plant response rating (morningglory; [19]): 2 | Morningglory plant response rating (morningglory; [20]): 2 | Morningglory plant response rating (morningglory; [21]): 2 | Morningglory plant response rating (morningglory; [22]): 0 | Plant response rating, Wheat (winter) (winter wheat [2]; [14]): 40 | Plant response rating, Wheat (winter) (winter wheat [2]; [4]): 30 | Plant response rating, Wheat (winter) (winter wheat [2]; [5]): 45 | Wheat (winter) plant response rating (0 to 100 scale) (winter wheat [2]; Rate 250 g/ha): 50 | Redroot pigweed plant response rating (pigweed; [15]): 4 | Redroot pigweed plant response rating (pigweed; [16]): 5 | Redroot pigweed plant response rating (pigweed; [17]): 0 | Redroot pigweed plant response rating (pigweed; [18]): 0 | Redroot pigweed plant response rating (pigweed; [19]): 0 | Redroot pigweed plant response rating (pigweed; [20]): 2 | Redroot pigweed plant response rating (pigweed; [21]): 6 | Redroot pigweed plant response rating (pigweed; [22]): 8 | Plant response rating, Blackgrass (blackgrass; [14]): 30 | Plant response rating, Blackgrass (blackgrass; [4]): 30 | Plant response rating, Blackgrass (blackgrass; [5]): 50 | Blackgrass plant response rating (0 to 100 scale) (blackgrass; Rate 250 g/ha): 60 | Plant response rating, Barley (winter) (winter barley; [14]): 30 | Plant response rating, Barley (winter) (winter barley; [4]): 20 | Plant response rating, Barley (winter) (winter barley; [5]): 30 | Barley (winter) plant response rating (0 to 100 scale) (winter barley; Rate 250 g/ha): 35 | Plant response rating, Green foxtail (green foxtail; [14]): 30 | Plant response rating, Green foxtail (green foxtail; [4]): 60 | Plant response rating, Green foxtail (green foxtail; [5]): 60 | Green foxtail plant response rating (0 to 100 scale) (green foxtail; Rate 250 g/ha): 90 | Giant foxtail plant response rating (giant foxtail; [15]): 9 | Giant foxtail plant response rating (giant foxtail; [16]): 10 | Giant foxtail plant response rating (giant foxtail; [17]): 0 | Giant foxtail plant response rating (giant foxtail; [18]): 8 | Giant foxtail plant response rating (giant foxtail; [19]): 2 | Giant foxtail plant response rating (giant foxtail; [20]): 7 | Giant foxtail plant response rating (giant foxtail; [21]): 8 | Giant foxtail plant response rating (giant foxtail; [22]): 10 | Plant response rating, I. Ryegrass (Italian ryegrass; [14]): 20 | Plant response rating, I. Ryegrass (Italian ryegrass; [4]): 50 | Plant response rating, I. Ryegrass (Italian ryegrass; [5]): 55 | I. Ryegrass plant response rating (0 to 100 scale) (Italian ryegrass; Rate 250 g/ha): 60

Cc1ccccc1Cn1c(=O)on(C(=O)N(c2ccc(F)cc2)C(C)C)c1=O [Compound 88]
Plant response rating, Wheat (winter) (winter wheat [1]; [3]): 0 | Plant response rating, Wheat (winter) (winter wheat [1]; Rate 1000 g/ha, 0 to 100 scale, 0 is no effect and 100 is complete control): 10 | Plant response rating, Wild oat (wild oat; [23]): 20 | Morningglory plant response rating (morningglory; [24]): 8 | Morningglory plant response rating (morningglory; [6]): 10 | Morningglory plant response rating (morningglory; [7]): 10 | Morningglory plant response rating (morningglory; [8]): 0 | Plant response rating, Morningglory (morningglory; [9]): 0 | Plant response rating, Morningglory (morningglory; [10]): 0 | Morningglory plant response rating (morningglory; [25]): 0 | Morningglory plant response rating (morningglory; [13]): 10 | Plant response rating, Wheat (winter) (winter wheat [2]; Rate 250 g/ha, 0 to 100 scale): 0 | Plant response rating, Wheat (winter) (winter wheat [2]; [23]): 10 | Redroot pigweed plant response rating (pigweed; [24]): 3 | Redroot pigweed plant response rating (pigweed; [6]): 3 | Redroot pigweed plant response rating (pigweed; [7]): 3 | Redroot pigweed plant response rating (pigweed; [8]): 9 | Plant response rating, Redroot pigweed (pigweed; [9]): 10 | Plant response rating, Redroot pigweed (pigweed; [10]): 10 | Redroot pigweed plant response rating (pigweed; [25]): 10 | Redroot pigweed plant response rating (pigweed; [13]): 5 | Plant response rating, Blackgrass (blackgrass; Rate 250 g/ha, 0 to 100 scale): 50 | Plant response rating, Blackgrass (blackgrass; [23]): 50 | Plant response rating, Barley (winter) (winter barley; Rate 250 g/ha, 0 to 100 scale): 0 | Plant response rating, Barley (winter) (winter barley; [23]): 0 | Plant response rating, Green foxtail (green foxtail; Rate 250 g/ha, 0 to 100 scale): 60 | Plant response rating, Green foxtail (green foxtail; [23]): 85 | Giant foxtail plant response rating (giant foxtail; [24]): 0 | Giant foxtail plant response rating (giant foxtail; [6]): 3 | Giant foxtail plant response rating (giant foxtail; [7]): 3 | Giant foxtail plant response rating (giant foxtail; [8]): 4 | Plant response rating, Giant foxtail (giant foxtail; [9]): 6 | Plant response rating, Giant foxtail (giant foxtail; [10]): 10 | Giant foxtail plant response rating (giant foxtail; [25]): 10 | Giant foxtail plant response rating (giant foxtail; [13]): 3 | Plant response rating, I. Ryegrass (Italian ryegrass; Rate 250 g/ha, 0 to 100 scale): 10 | Plant response rating, I. Ryegrass (Italian ryegrass; [23]): 50
